Laboratory results reported in article PMC3441713, “Citrullination of Histone H3 Interferes with HP1-Mediated Transcriptional Repression” (PLoS Genetics, 2012).
Entries after “also recorded” stand apart in the source; their conditions may differ.

Assays:
MCF7 cells [1] = experiment: Immunoblot of PADI4 and H3cit8K9me3 in MCF7 cells; type: cell-based, human
Source text: Anti-H3cit8K9me3 antibody was produced in rabbits using a peptide coupled to KLH with the following sequence: ARTKQTA (cit)(Kme3)[…]. Anti-PADI4 (ChIP: P4749; immunoblots: ab50332), anti-H3cit(2,8,17) (ab5103), anti-H3(ab1791), and anti-H3K9me3 (ab8898) antibodies were purchased from Abcam. Anti-HP1α (ChIP: 1H5; immunoblots: 2G9) and anti-Brg1 (2E12) were from Euromedex. Calcium ionophore A23187 (used on HEK293 and MCF7 cells) and ionomycin (only ionophore tolerated by Jurkat cells), and 17-ß-estradiol (E2758) were purchased from Sigma. DNA was labeled with 4′,6-diamidino-2-phenylindole (DAPI; Invitrogen) at a concentration of 150 ng.ml^−1. […] Peptides were carefully quantified by amino acid analysis, and the presence of the modifications was confirmed by mass spectrometry. […]
(§1) HP1 small interfering RNAs (siRNAs) were described previously. PADI4 (J-012471-05) and Glyceraldehyde-3-phosphate dehydrogenase control siRNAs were purchased from Dharmacon. Cells were harvested 72 h after transfection with DharmaFECT 1 (T 2001-03). Total RNA from PBMCs and MCF7 cells was extracted with RNeasy (Qiagen) and quantified with an ND-1000 (Nanodrop). After DNase treatment (Roche), reverse transcription was performed using SuperScript III (Invitrogen) and random hexanucleotides according to the manufacturer's instructions. Complementary DNA was quantified by RT-qPCR as previously described. Proteins were extracted as described previously and detected by Western blotting. Acid extraction of histones was conducted as described by Shechter, et al., [78].

MCF7 cells [2] = experiment: RT-qPCR of HERV, repeat and immune gene mRNA in MCF7 cells; type: cell-based, human
Procedure: as §1

MCF7 cells [3] = experiment: ChIP on HERV LTRs and gene promoters in MCF7 cells; type: cell-based, human
Procedure: Values are averaged from 3 independent experiments.
Ionophores were used at 1 µM.

Jurkat T cells [4] = experiment: PADI4 production in Jurkat T cells after estrogen/ionophore treatment (data not shown); type: cell-based
Jurkat T cells [5] = experiment: RT-qPCR of TNFα, IL8 and PADI4 mRNA in Jurkat T cells; type: cell-based; details: 200 µM Cl-amidine, 72 h; cells stimulated by ionomycin and PMA; duplicate
Procedure: (B) Total RNA was isolated from Jurkat cells either un-stimulated or treated with ionomycin and PMA for 2 hour. Changes in mRNA levels for the indicated genes were quantified by RT-qPCR. The data are presented as the means ± SEM of triplicate experiments. […] (D) Total RNA was isolated from Jurkat cells treated as in B minus or plus PADI-inhibitor cl-amidine as indicated. Changes in mRNA levels for the indicated genes were quantified by RT-qPCR. The data are presented as the means ± SEM of duplicate experiments.
Jurkat cells were treated with phorbol myristate acetate (PMA) at 40 nM. Ionophores were used at 1 µM. PADI4 inhibitor, Cl-amidine (from Bertin Pharma) was dissolved in 1× PBS as a 50 mM stock solution. MCF7 and Jurkat cells were treated with 200 µM Cl-amidine in complete cell culture medium for exactly 72 h.

[6] = E2 (200 nM, 24 h) + A23187 (5 µM, 30 min), minus or plus 200 µM Cl-amidine, relative to un-induced

Compound | total levels of H3cit8K9me3 modification (MCF7 cells [1]; 200 nM E2 24 h, then 5 µM A23187 30 min) | total levels of PADI4 (MCF7 cells [1]; 200 nM E2 24 h, then 5 µM A23187 30 min in Locke's solution) | expression of HERV-H/env62, ERVWE1 and the selected cytokine genes (MCF7 cells [2]; [6]) | expression of HERV-H/env62 (MCF7 cells [2]; E2 and A23187, 24 h, normalized to RPLP0, three replicates) | levels of citrullinated histone H3 at HERV-H, HERV-W/LTR and TNFα promoter (MCF7 cells [3]; E2+A23187, anti-H3cit (2, 8, 17) or anti-H3cit8K9me3) | levels of HP1α recruitment at HERV-H, HERV-W/LTR and TNFα promoter (MCF7 cells [3]; E2+A23187, anti-HP1α) | production of PADI4 (Jurkat T cells [4]) | levels of H3Cit8K9me3 (MCF7 cells [1]; 200 µM Cl-amidine, 72 h) | TNFα and IL8 mRNA accumulation (Jurkat T cells [5]) | expression of HERV-H/env62, ERVWE1 and the selected cytokine genes (MCF7 cells [2]; 200 µM Cl-amidine, 72 h, no E2/A23187, four replicates) | levels of HP1α occupancy at HERV-H, HERV-W/LTR and TNFα promoter (MCF7 cells [3]; E2+A23187 plus 200 µM Cl-amidine, anti-HP1α)
17-ß-estradiol [E2/A23187] | increases total levels | increases total levels; also recorded: induced | Cl-amidine-sensitive increase in expression | increases the expression | locally increases levels of citrullinated histone H3 | markedly decreased | stimulated production |  |  |  | 
NC(=O)[C@H](CCCN=C(N)CCl)NC(=O)c1ccccc1 [Cl-amidine] |  |  | Cl-amidine-sensitive increase in expression |  |  |  |  | decreased levels of H3Cit8K9me3 | reduced the kinetic and the abundance | reduced expression | partially restored
